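All cell lines were grown in 96-well plates and treated with compound for 48 hours. GI50: concentration for 50% inhibition of growth. TGI is the concentration that stops growth completely.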
Columns and labels:
Assay in all cases: NCI anticancer screen, dose series, 48 h
[1] = system: EKVX NSCLC
[2] = system: HOP-62 NSCLC
[3] = system: MDA-MB-435
[4] = system: NCI-H226 lung
[5] = system: NCI-H23 lung
[6] = system: OVCAR-3 ovarian
[7] = system: SF-539 CNS
[8] = system: SK-MEL-5 melanoma
[9] = system: SK-OV-3 ovarian
[10] = system: DU-145 prostate

| Compound | TGI [1] [µM] | TGI [2] [µM] | TGI [3] [µM] | TGI [4] [µM] | TGI [5] [µM] | TGI [6] [µM] | TGI [7] [µM] | TGI [8] [µM] | TGI [9] [µM] | TGI [10] [µM] | GI50 [10] [µM] | GI50 [1] [µM] | GI50 [2] [µM] | GI50 [3] [µM] | GI50 [4] [µM] | GI50 [5] [µM] | GI50 [6] [µM] | GI50 [7] [µM] | GI50 [9] [µM] |
| --- | --- | --- | --- | --- | --- | --- | --- | --- | --- | --- | --- | --- | --- | --- | --- | --- | --- | --- | --- |
| O=C(NCc1cccc(C(F)(F)F)c1)c1cc2sccc2nc1C(F)(F)F | > 100 | > 100 | > 100 | > 100 | > 100 | > 100 | > 100 | > 100 | > 100 | – | – | – | – | – | – | – | – | – | – |
| C/C(=N\NC(=S)N1CCCCC1)c1cccc(C)n1 | 31.2 | – | 16.8 | 0.4 | 10.7 | 12.1 | 0.413 | 0.449 | – | 2.22 | – | – | – | – | – | – | – | – | – |
| Cc1ccc(C(=O)O)c(CC2Cc3c(C)cccc3C2=O)c1 (configuration not stated) | > 100 | > 100 | > 100 | > 100 | > 100 | > 100 | > 100 | > 100 | > 100 | > 100 | – | – | – | – | – | – | – | – | – |
| Nc1nc(-c2ccccc2N=NN2CCCC2)nc2ccccc12 | 23.8 | 5.11 | 6.7 | 12.2 | 8.06 | 4.35 | 5 | 17.8 | 21.4 | 16.5 | – | – | – | – | – | – | – | – | – |
| C(=C\c1cccc(/C=C/c2ccccn2)n1)/c1ccccn1 | > 100 | > 100 | > 100 | > 100 | > 100 | > 100 | > 100 | > 100 | > 100 | > 100 | – | – | – | – | – | – | – | – | – |
| COc1nc2c(c(=O)n1C)N[C@H]1[C@H](OC(C)=O)[C@@H](OC(C)=O)CO[C@H]1N2 | > 100 | > 100 | > 100 | > 100 | – | > 100 | > 100 | > 100 | > 100 | > 100 | – | – | – | – | – | – | – | – | – |
| N#CC(C#N)=C1C(C#N)=C(N)NC12OCCO2 | > 100 | > 100 | > 100 | > 100 | > 100 | – | – | > 100 | > 100 | > 100 | – | – | – | – | – | – | – | – | – |
| Cc1cc(/C=C\c2ccc3ccccc3[n+]2C)c(O)c2ncccc12 | 7.82 | 8.03 | 0.523 | 3.17 | 3.25 | 0.569 | 0.909 | – | 4.84 | 4.22 | 0.902 | 0.671 | 0.497 | 0.0875 | 1.24 | 0.276 | 0.176 | 0.202 | 1.68 |
| OCC1OC(n2cnc3cncnc32)C(O)C1O (configuration not stated) | 4.18 | 6.84 | – | 3.33 | 3.68 | 4.94 | 2.94 | 3.25 | 5.16 | – | – | – | – | – | – | – | – | – | – |
| N=c1oc2ccc3ccccc3c2cc1C(N)=O | – | > 100 | > 100 | > 100 | > 100 | > 100 | – | > 100 | > 100 | > 100 | – | – | – | – | – | – | – | – | – |
| O=C1NC(=O)/C(=C/c2ccc(S(=O)(=O)N/N=C/c3ccc(Cl)cc3)cc2)N1 | > 100 | > 100 | > 100 | > 100 | > 100 | > 100 | – | > 100 | > 100 | > 100 | – | – | – | – | – | – | – | – | – |
| CN(C)CCNC(=O)c1ccc(NCCCN(C)CCCNc2ccc3c(=O)n(CCN(C)C)c(=O)n4c5ccccc5c(=O)c2c34)c2c(=O)c3ccccc3[nH]c12 | 0.567 | 0.309 | 0.18 | 0.665 | 0.27 | 0.23 | 2.46 | 1.22 | 0.411 | – | – | – | – | – | – | – | – | – | – |
| Cc1cc(=O)n2nc(SCc3ccccc3)sc2n1 | – | > 100 | > 100 | > 100 | > 100 | > 100 | > 100 | > 100 | > 100 | > 100 | – | – | – | – | – | – | – | – | – |
| N=C1N(S(=O)(=O)c2ccccc2)[C@@H](Cc2ccccc2)[C@H](c2ccccc2)C1(c1ccccc1)c1ccccc1 | > 100 | > 100 | > 100 | – | > 100 | > 100 | > 100 | > 100 | > 100 | > 100 | – | – | – | – | – | – | – | – | – |
| CN(C)c1nc(N(C)C)nc(N(C)C23CC4CC(CC(C4)C2)C3)n1 | > 100 | > 100 | > 100 | > 100 | 34.1 | > 100 | > 100 | – | > 100 | > 100 | – | – | – | – | – | – | – | – | – |
| Nc1cccc2c1C(=O)c1cccc(N)c1C2=O | > 100 | > 100 | – | > 100 | > 100 | > 100 | > 100 | > 100 | > 100 | – | – | – | – | – | – | – | – | – | – |
| CCOC(=O)c1c(N2CCCC2)ncn(-c2ccccc2)c1=S | > 100 | > 100 | > 100 | > 100 | – | > 100 | > 100 | > 100 | > 100 | > 100 | – | – | – | – | – | – | – | – | – |
| Cc1ccc(C(C)(C)C[P+](C)(c2ccccc2)c2ccccc2)cc1 | > 100 | 75.9 | – | > 85.3 | > 58.7 | 22.2 | > 100 | 12.7 | 64.2 | – | – | – | – | – | – | – | – | – | – |
| Cc1ccccc1-n1c(C)nc2c1C(=O)c1ccccc1C2=O | > 100 | > 100 | – | > 100 | > 100 | 61.8 | > 100 | 53.7 | – | – | – | – | – | – | – | – | – | – | – |
| CCNc1ccc2c(c1)Cc1ccccc1-2 | > 100 | > 100 | > 100 | > 100 | > 100 | > 100 | > 100 | > 100 | – | > 100 | – | – | – | – | – | – | – | – | – |
| COc1ccc(/C=c2\[nH]c3nc(=O)c(N4CCOCC4)c(N)n3c2=O)cc1 | > 100 | – | > 100 | > 100 | > 100 | – | > 100 | > 100 | > 100 | > 100 | – | – | – | – | – | – | – | – | – |
| COC(=O)C1CCC(=O)N1C(=O)Cc1ccc(OC)cc1 (configuration not stated) | > 100 | – | – | > 100 | > 100 | > 100 | – | > 100 | > 100 | – | – | – | – | – | – | – | – | – | – |
| Cc1nc2c3c(ncn2n1)Oc1c(c(-c2ccccc2)nn1-c1ccccc1)C3c1ccc(Cl)cc1 (configuration not stated) | > 100 | > 100 | > 100 | > 100 | > 100 | > 100 | 97.1 | – | > 100 | > 100 | – | – | – | – | – | – | – | – | – |

— PubChem BioAssay (NCI)
